According to patent US20120225062A1 (priority 2011, published 2012):

Tests used:
Pim 1 = Pim 1 (Homo sapiens, UniProt P11309); experiment: Pim 1 AlphaScreen assay (high ATP)
Pim 2 = Pim 2 (Homo sapiens, UniProt Q9P1W9); experiment: Pim 2 AlphaScreen assay (high ATP)
Pim 3 = Pim 3 (Homo sapiens, UniProt Q86V86); experiment: Pim 3 AlphaScreen assay (high ATP)
[1] = test system: KMS11 (human myeloma cell line); experiment: Cell Proliferation Assay (CellTiter-Glo, 3 days); type: cell-based; conditions: KMS-11, 72 h, KMS11-luc cells
Outline: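 EC50 from CellTiter-Glo luminescence after 3-day, 37° C compound treatment of KMS11 cells seeded at 2000 per well in IMDM plus 10% FBS.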

Pim 1, sequence (P11309 whole entry): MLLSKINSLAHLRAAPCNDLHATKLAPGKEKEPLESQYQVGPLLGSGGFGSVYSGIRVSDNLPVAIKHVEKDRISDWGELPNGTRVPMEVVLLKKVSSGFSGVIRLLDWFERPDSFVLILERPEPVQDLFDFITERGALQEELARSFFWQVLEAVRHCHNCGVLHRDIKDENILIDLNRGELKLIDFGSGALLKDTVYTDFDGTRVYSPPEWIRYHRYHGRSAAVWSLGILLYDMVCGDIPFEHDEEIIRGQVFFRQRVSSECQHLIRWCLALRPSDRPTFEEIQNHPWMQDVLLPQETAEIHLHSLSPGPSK
Pim 2, sequence (Q9P1W9 whole entry): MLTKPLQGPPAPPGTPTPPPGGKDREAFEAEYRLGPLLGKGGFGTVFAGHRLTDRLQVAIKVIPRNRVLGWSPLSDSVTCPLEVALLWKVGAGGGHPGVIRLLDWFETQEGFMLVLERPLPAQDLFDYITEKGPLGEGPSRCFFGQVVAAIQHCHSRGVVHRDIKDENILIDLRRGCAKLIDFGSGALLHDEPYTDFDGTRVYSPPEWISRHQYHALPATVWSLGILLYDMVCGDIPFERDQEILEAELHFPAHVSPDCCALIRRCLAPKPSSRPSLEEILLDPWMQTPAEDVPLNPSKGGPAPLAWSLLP

Row | SMILES | IC50 (Pim 1) [nM] | IC50 (Pim 2) [nM] | IC50 (Pim 3) [nM] | EC50 [1] [nM]
1 | C[C@H]1C[C@@H](c2ccncc2NC(=O)c2ccc(F)c(-c3c(F)cc(OCC4(C#N)CCOCC4)cc3F)n2)C[C@@H](N)[C@@H]1O [Example 186, N-(4-((1R,3R,4R,5S)-3-amino-4-hydroxy-5-methylcyclohexyl)pyridin-3-yl)-6-(4-((4-cyanotetrahydro-2H-pyran-4-yl)methoxy)-2,6-difluorophenyl)-5-fluoropicolinamide] | 0.04 | 3 | 1.32 | 527
2 | C[C@H]1CN(c2ccncc2NC(=O)c2ccc(F)c(-c3c(F)cc(OCC4CC4)cc3F)n2)C[C@@H](N)[C@@H]1O [Example 92, N-(4-((3R,4R,5S)-3-amino-4-hydroxy-5-methylpiperidin-1-yl)pyridin-3-yl)-6-(4-(cyclopropylmethoxy)-2,6-difluorophenyl)-5-fluoropicolinamide] | 0.01 | 0.51 | 0.09 | 34
3 | C[C@H]1C[C@@H](c2ccncc2NC(=O)c2ccc(F)c(-c3c(F)cc(OC4CCOCC4)cc3F)n2)C[C@@H](N)[C@H]1O [Example 140, N-(4-((1R,3R,4S,5S)-3-amino-4-hydroxy-5-methylcyclohexyl)pyridin-3-yl)-6-(2,6-difluoro-4-(tetrahydro-2H-pyran-4-yloxy)phenyl)-5-fluoropicolinamide] | 0.04 | 6.05 | 1.71 | 863
4 | C[C@@H]1C[C@H](N)C[C@H](c2ccncc2NC(=O)c2ccc(F)c(-c3c(F)cc(CCO)cc3F)n2)C1 [Example 33, N-(4-((1R,3S,5S)-3-amino-5-methylcyclohexyl)pyridin-3-yl)-6-(2,6-difluoro-4-(2-hydroxyethyl)phenyl)-5-fluoropicolinamide] | 0.02 | 1.52 | 1 | 13
5 | C[C@H]1C[C@@H](c2ccncc2NC(=O)c2ccc(F)c(-c3c(F)cc(OCC(F)(F)F)cc3F)n2)C[C@@H](N)[C@@H]1O [Example 197, N-(4-((1R,3R,4R,5S)-3-amino-4-hydroxy-5-methylcyclohexyl)pyridin-3-yl)-6-(2,6-difluoro-4-(2,2,2-trifluoroethoxy)phenyl)-5-fluoropicolinamide] | 0.05 | 2.56 | 1.43 | 619
6 | CC(C)Oc1cc(F)c(-c2nc(C(=O)Nc3cnccc3[C@H]3C[C@@H](N)[C@@H](O)[C@@H](C)C3)ccc2F)c(F)c1 [Example 125, N-(4-((1R,3R,4S,5S)-3-amino-4-hydroxy-5-methylcyclohexyl)pyridin-3-yl)-6-(2,6-difluoro-4-isopropoxyphenyl)-5-fluoropicolinamide] | 0.03 | 1.82 | 0.96 | 100
7 | C[C@H]1CN(c2ccncc2NC(=O)c2ccc(F)c(-c3c(F)cc(CC(C)(C)O)cc3F)n2)C[C@@H](N)[C@@H]1O [Example 131, N-(4-((3R,4R,5S)-3-amino-4-hydroxy-5-methylpiperidin-1-yl)pyridin-3-yl)-6-(2,6-difluoro-4-(2-hydroxy-2-methylpropyl)phenyl)-5-fluoropicolinamide] | 0.01 | 1.31 | 0.18 | 25
8 | CC(C)[C@@H]1C[C@H](N)C[C@H](c2ccncc2NC(=O)c2ccc(F)c(-c3c(F)cc(C4(O)CCC4)cc3F)n2)C1 [Example 133, N-(4-((1R,3S,5S)-3-amino-5-isopropylcyclohexyl)pyridin-3-yl)-6-(2,6-difluoro-4-(1-hydroxycyclobulyl)phenyl)-5-fluoropicolinamide] | 0.02 | 1.77 | 0.7 | 31
9 | C[C@@H]1C[C@H](N)C[C@H](c2ccncc2NC(=O)c2ccc(F)c(-c3c(F)cc(OC4COC4)cc3F)n2)C1 [Example 48, N-(4-((1R,3S,5S)-3-amino-5-methylcyclohexyl)pyridin-3-yl)-6-(2,6-difluoro-4-(oxetan-3-yloxy)phenyl)-5-fluoropicolinamide] | 0.08 | 4.16 | 0.24 | 84
10 | C[C@H]1C[C@@H](c2ccncc2NC(=O)c2ccc(F)c(-c3c(F)cc(OCC4CCOCC4)cc3F)n2)C[C@@H](N)[C@@H]1O [Example 178, N-(4-((1R,3R,4R,5S)-3-amino-4-hydroxy-5-methylcyclohexyl)pyridin-3-yl)-6-(2,6-difluoro-4-((tetrahydro-2H-pyran-4-yl)methoxy)phenyl)-5-fluoropicolinamide] | 0.03 | 1.42 | 0.84 | 395
11 | CC(C)Oc1cc(F)c(-c2nc(C(=O)Nc3cnccc3[C@@H]3C[C@H](C)C[C@H](N)C3)ccc2F)c(F)c1 [Example 75, N-(4-((1R,3S,5S)-3-amino-5-methylcyclohexyl)pyridin-3-yl)-6-(2,6-difluoro-4-isopropoxyphenyl)-5-fluoropicolinamide] | 0.02 | 1.55 | 0.62 | 44
12 | C[C@H]1C[C@@H](c2ccncc2NC(=O)c2ccc(F)c(-c3c(F)cc(COC4CCOCC4)cc3F)n2)C[C@@H](N)[C@@H]1O [Example 138, N-(4-((1R,3R,4R,5S)-3-amino-4-hydroxy-5-methylcyclohexyl)pyridin-3-yl)-6-(2,6-difluoro-4-((tetrahydro-2H-pyran-4-yloxy)methyl)phenyl)-5-fluoropicolinamide] | 0.08 | 3.3 | 2.39 | 324
13 | CCOCc1cc(F)c(-c2nc(C(=O)Nc3cnccc3[C@@H]3C[C@H](C)C[C@H](N)C3)ccc2F)c(F)c1 [Example 81, N-(4-((1R,3S,5S)-3-amino-5-methylcyclohexyl)pyridin-3-yl)-6-(4-(ethoxymethyl)-2,6-difluorophenyl)-5-fluoropicolinamide] | 0.01 | 0.42 | 0.21 | 14
14 | C[C@H]1C[C@@H](c2ccncc2NC(=O)c2ccc(F)c(-c3c(F)cc(OCC(C)(C)O)cc3F)n2)C[C@@H](N)[C@@H]1O [Example 51, N-(4-((1R,3R,4R,5S)-3-amino-4-hydroxy-5-methylcyclohexyl)pyridin-3-yl)-6-(2,6-difluoro-4-(2-hydroxy-2-methylpropoxy)phenyl)-5-fluoropicolinamide] | 0.03 | 4.34 | 1.02 | 30
15 | CCc1cc(F)c(-c2nc(C(=O)Nc3cnccc3N3C[C@@H](N)[C@H](O)[C@@H](C)C3)ccc2F)c(F)c1 [Example 235, N-(4-((3R,4R,5S)-3-amino-4-hydroxy-5-methylpiperidin-1-yl)pyridin-3-yl)-6-(4-ethyl-2,6-difluorophenyl)-5-fluoropicolinamide] | 0.02 | 0.87 | 0.25 | 20
16 | Cc1cc(F)c(-c2nc(C(=O)Nc3cnccc3[C@H]3C[C@@H](N)C[C@@H](C(C)C)C3)ccc2F)c(F)c1 [Example 123, N-(4-((1R,3S,5S)-3-amino-5-isopropylcyclohexyl)pyridin-3-yl)-6-(2,6-difluoro-4-methylphenyl)-5-fluoropicolinamide] | 0.02 | 0.8 | 0.58 | 59
